A word on the DC50: it is the midpoint of the concentration-degradation curve. Low readings indicate degradation at low concentration, high ones degradation only at high concentration.

In the first assay the target is T1, ERα (Homo sapiens, UniProt P03372).
T1 construct: ERα degradation percent activity in MCF7 neo/HER2 cells
T1 sequence (P03372 1-595): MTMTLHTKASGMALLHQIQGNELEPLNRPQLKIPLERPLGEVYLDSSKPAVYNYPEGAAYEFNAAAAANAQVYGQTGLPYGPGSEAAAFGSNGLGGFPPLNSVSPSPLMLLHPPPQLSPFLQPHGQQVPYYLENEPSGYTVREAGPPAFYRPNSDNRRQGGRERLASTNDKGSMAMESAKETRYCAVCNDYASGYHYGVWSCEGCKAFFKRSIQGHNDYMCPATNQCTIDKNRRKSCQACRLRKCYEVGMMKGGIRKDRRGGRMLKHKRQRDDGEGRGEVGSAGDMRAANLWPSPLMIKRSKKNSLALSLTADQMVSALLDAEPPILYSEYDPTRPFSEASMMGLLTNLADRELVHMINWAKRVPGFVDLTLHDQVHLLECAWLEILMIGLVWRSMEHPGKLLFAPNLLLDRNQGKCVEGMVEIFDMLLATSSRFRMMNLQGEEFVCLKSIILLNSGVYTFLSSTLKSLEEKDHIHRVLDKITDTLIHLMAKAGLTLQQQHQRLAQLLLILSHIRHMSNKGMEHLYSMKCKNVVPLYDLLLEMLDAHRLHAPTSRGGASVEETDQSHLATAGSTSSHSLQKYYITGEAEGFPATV
Put plainly: Degradation of ERα by Ab-CIDEs (Example 3, FIGS. 1-3, Tables 2-4). Format: cell-based. Conditions: ERα degradation by Ab-CIDE.
`CC/C(=C(/c1ccc(OCCN(C)C(=O)CCOCCOCCC(=O)N[C@H](C(=O)N2C[C@H](OC(=O)OCC(C)(C)SS(C)(=O)=O)C[C@H]2C(=O)NCc2ccc(-c3scnc3C)cc2)C(C)(C)C)cc1)c1ccc(OP(=O)(O)O)cc1)c1ccccc1` [Thio Hu Anti- CD22 10F4v3 high DAR [LC:K149C HC:L174C HC:Y37]: the DC50 was 1270 nM and the Sinf is −92%.
The matching figures for `CC/C(=C(\c1ccc(O)cc1)c1ccc(OCCN(C)C(=O)CCOCCOCCC(=O)N[C@H](C(=O)N2C[C@H](OC(=O)OCC(C)(C)SS(C)(=O)=O)C[C@H]2C(=O)NCc2ccc(-c3scnc3C)cc2)C(C)(C)C)cc1)c1ccccc1` [Thio Hu Anti- CD22 10F4v3 high DAR [LC:K149C HC:L174C Y373C]]: 304 nM and −92%.
Take `CC/C(=C(/c1ccc(OCCN(C)C(=O)CCOCCOCCC(=O)N[C@H](C(=O)N2C[C@H](OC(=O)OCC(C)(C)SS(C)(=O)=O)C[C@H]2C(=O)NCc2ccc(-c3scnc3C)cc2)C(C)(C)C)cc1)c1ccc(OP(=O)(O)O)cc1)c1ccccc1` [Thio Hu Anti- Her2 7C2 high DAR [LC:K149C HC:L174C HC:Y373C]]: it took 47.4 nM to reach half-maximal degradation (DC50) and the Sinf was −94%.
The matching figures for `CC/C(=C(\c1ccc(O)cc1)c1ccc(OCCN(C)C(=O)CCOCCOCCC(=O)N[C@H](C(=O)N2C[C@H](OC(=O)OCC(C)(C)SS(C)(=O)=O)C[C@H]2C(=O)NCc2ccc(-c3scnc3C)cc2)C(C)(C)C)cc1)c1ccccc1` [Thio Hu Anti- Her2 7C2 high DAR [LC:K149C HC:L174C HC:Y373C]]: 27.9 nM and −93%.

Another assay relates to EOL-1 AML xenografts. Briefly: EOL-1 AML subcutaneous xenograft efficacy. It is filed as in vivo, mice. Conditions: single IV dose 0.4 mg/kg. The protocol:
Two human AML cell lines, EOL-1 (DSMZ; Braunschweig, Germany) and HL-60 (ATCC, Manassas, VA) were used to establish subcutaneous xenograft models for efficacy evaluation of the degrader-antibody conjugates. Tumor cells (5 million cells suspended in 0.1 mL of Hanks' Balanced Salt Solution supplemented with Matrigel) were inoculated to the flanks of female CB-17 Fox Chase SCID mice (Charles River Lab, Hollister, CA). When mean tumor size reached the desired volume (200-300 mm^3), animals were randomized into groups of n=5, each with similar tumor volume distributions, and each animal received an intraperitoneal dose of a mouse IgG2a anti-ragweed antibody in excess amount (30 mg/kg; to block Fcγ receptors frequently expressed on the surface of AML cells). Four hours later, vehicle or degrader-antibody conjugates were administered to the animals via single intravenous (IV) bolus injections through the tail vein. Tumors were measured in two dimensions (length and width) using calipers and the tumor volume was calculated using the formula: Tumor size (mm^3)=0.5×(length×width×width). The results were plotted as mean tumor volume+/−SEM of each group over time. Treatment groups were not blinded during tumor measurement.
Regarding `Cc1ncsc1-c1ccc(CNC(=O)[C@@H]2C[C@@H](O)CN2C(=O)[C@@H](NC(=O)CCCCCCCCCCNC(=O)c2cc3c(cc2CS(C)(=O)=O)-c2cn(C)c(=O)c4[nH]cc(c24)CN3c2ncc(F)cc2F)C(C)(C)C)cc1` [unconjugated CIDE], the “efficacy in the EOL-1 model” value is recorded as “no efficacy”.

For the origin of these results see US12440706B2, “Conjugated chemical inducers of degradation and methods of use” (Genentech, Inc., priority 2018, dated 2025).
